Results on six molecules are retold here after article PMC3541164, “Cytotoxic and potent CYP1 inhibitors from the marine algae Cymopolia barbata” (Organic and Medicinal Chemistry Letters, 2012).

Structures are written as SMILES. Entries after “also recorded” stand apart in the source; their conditions may differ. Like-named read-outs stand apart in the source and are kept apart here.

As a reminder, the IC50 is the point on the concentration scale where inhibition reaches its midpoint. As a reminder, the viability is a per cent measure of how many cells are alive, often set against a control.

Series [1] deals with T1, CYP1A1 (Homo sapiens, UniProt P04798).
T1 sequence (P04798 1-512): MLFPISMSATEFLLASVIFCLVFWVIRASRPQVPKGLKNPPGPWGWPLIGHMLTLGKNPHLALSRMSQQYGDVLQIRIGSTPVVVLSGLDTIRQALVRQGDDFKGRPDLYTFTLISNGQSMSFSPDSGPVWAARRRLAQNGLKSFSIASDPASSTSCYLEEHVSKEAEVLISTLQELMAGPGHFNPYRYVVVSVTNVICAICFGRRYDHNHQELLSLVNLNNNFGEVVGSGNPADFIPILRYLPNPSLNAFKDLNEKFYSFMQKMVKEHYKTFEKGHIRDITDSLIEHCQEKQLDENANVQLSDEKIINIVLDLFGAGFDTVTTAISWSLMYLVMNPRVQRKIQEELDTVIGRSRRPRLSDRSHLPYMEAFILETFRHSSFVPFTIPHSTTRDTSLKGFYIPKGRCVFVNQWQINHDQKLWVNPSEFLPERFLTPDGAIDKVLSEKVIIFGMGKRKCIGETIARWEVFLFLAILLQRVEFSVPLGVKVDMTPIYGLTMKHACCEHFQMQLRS
Put plainly: Fluorometric CYP inhibition assay, CEC dealkylation. Format: biochemical. Particulars: for IC50: recombinant CYP1A1, CEC 0.5 μM; for nature of inhibition of CYP1A1 activity: Eadie-Hofstee analysis, reversible; for Ki: apparent Ki, CEC dealkylation.
Method: (§2) The test compounds were evaluated for their ability to inhibit the catalytic activity of human CYP1 enzymes by means of high throughput fluorometric detection assays conducted in 96-well microtitre plates as described elsewhere [16, 17]. 7-Ethoxyresorufin (ERes) was used as a substrate for detecting activity of CYP1B1 and 7-ethoxy-3-cyanocoumarin (CEC) was used as a substrate for both CYP1A1 and CYP1A2. Further, the substrates, 3-[2-(NN-diethyl-N-methylamino)ethyl]-7-methoxy-4methylcoumarin (AMMC), 7-benzyloxy-4-trifluoromethylcoumarin (BFC), and CEC were used as substrates for CYP2D6, CYP3A4, and CYP2C19, respectively. The reactions were monitored fluorometrically at 37°C, using a Varian Cary Eclipse fluorescence spectrophotometer.
(§3) IC50 and Ki values were determined by fitting the data in Sigma Plot (version 10.0) and enzyme kinetics module, using nonlinear regression analysis. The apparent Ki values were determined on the basis of visual inspection of Eadie-Hofstee and various statistics to evaluate goodness of fit, such as the size of the sum of squares of residuals, Akaike information criterion, and standard error (Enzyme kinetics module, version 1.3). The data listed represent the average values from three different determinations.
(§4) Data are expressed as mean percentage of control enzyme activity for three independent experiments.

In series [2] the target is T2, CYP1B1 (Homo sapiens, UniProt Q16678).
T2 sequence (Q16678 1-543): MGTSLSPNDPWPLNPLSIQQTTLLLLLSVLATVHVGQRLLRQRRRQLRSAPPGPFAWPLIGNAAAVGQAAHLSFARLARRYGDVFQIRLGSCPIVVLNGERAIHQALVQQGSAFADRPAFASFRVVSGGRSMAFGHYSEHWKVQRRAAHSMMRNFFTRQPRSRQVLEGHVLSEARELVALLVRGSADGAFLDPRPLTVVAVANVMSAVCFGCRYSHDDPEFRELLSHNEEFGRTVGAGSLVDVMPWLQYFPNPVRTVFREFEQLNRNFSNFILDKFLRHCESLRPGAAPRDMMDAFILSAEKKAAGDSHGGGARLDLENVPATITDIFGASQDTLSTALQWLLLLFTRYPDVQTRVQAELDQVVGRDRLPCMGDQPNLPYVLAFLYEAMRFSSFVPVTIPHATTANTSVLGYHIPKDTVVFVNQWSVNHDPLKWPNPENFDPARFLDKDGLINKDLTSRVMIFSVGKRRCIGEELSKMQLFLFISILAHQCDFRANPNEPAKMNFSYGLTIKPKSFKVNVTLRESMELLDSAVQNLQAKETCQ
Put plainly: Fluorometric CYP inhibition assay, ERes dealkylation. It is filed as biochemical. Conditions: for nature of inhibition of CYP1B1 activity: Eadie-Hofstee analysis, reversible; for Ki: apparent Ki, ERes dealkylation.
Method: as §2, §3, §4

Series [3] addresses T1, CYP1A1. Conditions: published value for known inhibitor; cited from earlier work.
Series [4] addresses T2, CYP1B1. Particulars: published value for known inhibitor; cited from earlier work.
The test system of series [5] is CYP1A1. Details: method as in PMID 10188874. Particulars: MCF-7 breast cancer cells; cited from earlier work.
For a further series, the system named is CCD18 Co cells. Put plainly: MTS cell viability assay, normal colon cells. Format: cell-based. Conditions: normal colon cell line, 24 h exposure, MTS; for IC50: Homo sapiens, CCD-18Co. The method, then:
(§1) Cell lines (CCD18 Co, HepG2 and MCF-7) were maintained in ATCC-formulated Eagle’s Minimum Essential Medium and HT29 was maintained in McCoy’s 5a Modified Medium supplemented with 10% fotal bovine serum (Atlas; Fort Collins, CO, USA), 10 mM HEPES solution, 100 mM L-glutamine penicillin streptomycin solution, 3 g/L glucose, and 1.5 g/L of sodium bicarbonate. Cells were maintained at 37°C with 5% CO2 in Corning 75 cm^2 culture flasks. Cells were exposed to a given isolate or known anticancer agent for 24 h. Following the appropriate treatments, cell viability was evaluated using an MTS assay according to the manufacturer’s instructions. All assays were performed at least three times and were monitored spectrophotometrically at 590 nm. Cell viability was recorded as percentage relative to vehicle solvent-treated control.
(In general: Tetrazolium assays rely on reduction of a dye to a coloured formazan, in cell work by metabolically active cells.)

In another series the test system is HT29 cells. Put plainly: MTS cell viability assay, colon cancer cells. Format: cell-based. Particulars: colon cancer cell line, 24 h exposure, MTS; for IC50: Homo sapiens, HT-29. How it is done:
as §1

In the next series the test system is HepG2 cells. Put plainly: MTS cell viability assay, liver cancer cells. It is filed as cell-based. Conditions: liver cancer cells, 24 h exposure, MTS. The method, then:
as §1

The next series relates to MCF-7 cells. Put plainly: MTS cell viability assay, breast cancer cells. It is filed as cell-based. Particulars: breast cancer cells, 24 h exposure, MTS.
A further series has as its target T3, CYP1A2 (Homo sapiens, UniProt P05177).
T3 sequence (P05177 1-516): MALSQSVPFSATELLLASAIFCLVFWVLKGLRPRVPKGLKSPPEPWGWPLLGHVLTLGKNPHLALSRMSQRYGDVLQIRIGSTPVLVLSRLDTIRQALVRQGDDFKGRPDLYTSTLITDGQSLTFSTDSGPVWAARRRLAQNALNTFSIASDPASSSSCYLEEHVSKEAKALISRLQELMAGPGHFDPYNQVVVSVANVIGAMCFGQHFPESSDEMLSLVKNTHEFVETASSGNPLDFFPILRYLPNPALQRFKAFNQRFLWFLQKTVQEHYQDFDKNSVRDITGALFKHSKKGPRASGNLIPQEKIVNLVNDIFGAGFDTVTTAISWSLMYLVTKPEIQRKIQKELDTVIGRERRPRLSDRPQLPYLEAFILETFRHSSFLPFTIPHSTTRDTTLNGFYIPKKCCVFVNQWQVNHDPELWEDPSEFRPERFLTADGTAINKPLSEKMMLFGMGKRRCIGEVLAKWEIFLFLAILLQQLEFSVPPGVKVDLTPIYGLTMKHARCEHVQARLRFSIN
Put plainly: Fluorometric CYP inhibition assay, CEC dealkylation. Particulars: for IC50: recombinant CYP1A2, CEC 5 μM. Format: biochemical.

Series [6] concerns the target T4, CYP2C19 (Homo sapiens, UniProt P33261). Described as above. It is filed as in vitro ADME. Particulars: recombinant CYP2C19, CEC 25 μM.
Method: as §2, §3, §4
The target of another series is CYP3A4 (Homo sapiens, UniProt P08684). Put plainly: Fluorometric CYP inhibition assay, BFC debenzylation. Format: in vitro ADME.
CYP3A4, sequence (P08684 whole entry): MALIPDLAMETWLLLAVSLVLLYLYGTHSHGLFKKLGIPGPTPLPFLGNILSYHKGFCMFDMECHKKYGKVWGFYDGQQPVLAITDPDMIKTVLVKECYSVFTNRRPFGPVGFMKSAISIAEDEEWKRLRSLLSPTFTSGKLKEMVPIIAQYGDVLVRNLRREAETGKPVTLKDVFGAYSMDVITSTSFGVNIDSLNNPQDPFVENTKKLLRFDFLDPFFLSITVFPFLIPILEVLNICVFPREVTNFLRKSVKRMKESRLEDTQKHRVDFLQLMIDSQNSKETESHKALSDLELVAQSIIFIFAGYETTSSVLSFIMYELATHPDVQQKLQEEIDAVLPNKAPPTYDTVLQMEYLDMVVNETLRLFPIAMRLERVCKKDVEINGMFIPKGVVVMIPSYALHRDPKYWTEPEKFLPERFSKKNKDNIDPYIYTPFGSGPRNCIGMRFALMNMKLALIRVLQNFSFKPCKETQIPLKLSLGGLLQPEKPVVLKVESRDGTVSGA
The target of series [7] is T5, CYP2D6 (Homo sapiens, UniProt P10635). Put plainly: biochemical.
T5 sequence (P10635 whole entry): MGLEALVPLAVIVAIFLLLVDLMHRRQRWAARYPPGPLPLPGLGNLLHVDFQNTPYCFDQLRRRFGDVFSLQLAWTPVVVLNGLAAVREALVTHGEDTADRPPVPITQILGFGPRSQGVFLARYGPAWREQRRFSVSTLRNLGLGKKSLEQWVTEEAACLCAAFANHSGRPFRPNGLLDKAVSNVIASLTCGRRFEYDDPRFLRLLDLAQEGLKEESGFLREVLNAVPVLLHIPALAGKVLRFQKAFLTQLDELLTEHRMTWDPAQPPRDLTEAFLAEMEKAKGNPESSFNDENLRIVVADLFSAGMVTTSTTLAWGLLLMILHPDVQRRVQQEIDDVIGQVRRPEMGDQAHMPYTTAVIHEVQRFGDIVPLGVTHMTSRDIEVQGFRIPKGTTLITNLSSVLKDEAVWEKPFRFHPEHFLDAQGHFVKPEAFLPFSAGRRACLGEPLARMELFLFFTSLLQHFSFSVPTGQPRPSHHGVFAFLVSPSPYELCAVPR
Method: as §2, §3, §4
Series [8] addresses T4, CYP2C19. Particulars: read-out: published IC50 CYP2C19; published value for known inhibitor; cited from earlier work.
Series [9] is described as follows: MTS cell viability assay, normal colon cells. Format: cell-based. Conditions: human, CCD18 Co normal colon cells; at 60 μM, CCD18 Co; read-out: impact on cell viability. How it is done: as §1
A short description of series [10]: MTS cell viability assay, colon cancer cells. Format: cell-based. Conditions: human, HT29 colon cancer cells; at 60 μM, HT29; read-out: impact on cell viability. The method, then:
as §1

Series [11] can be described thus: MTS cell viability assay, liver cancer cells. Format: cell-based. Conditions: human, HepG2 liver cancer cells; at 60 μM, HepG2; read-out: impact on cell viability. How it is done:
as §1

Series [12] is described as follows: MTS cell viability assay, breast cancer cells. It is filed as cell-based. Particulars: human, MCF-7 breast cancer cells; at 60 μM, MCF-7; read-out: impact on cell viability.
Method: (§5) Cells were maintained at 37°C with 5% CO2 in Corning 75 cm^2 culture flasks. Cells were exposed to a given isolate or known anticancer agent for 24 h. Following the appropriate treatments, cell viability was evaluated using an MTS assay according to the manufacturer’s instructions [14]. All assays were performed at least three times and were monitored spectrophotometrically at 590 nm [15]. Cell viability was recorded as percentage relative to vehicle solvent-treated control.
The target in series [13] is T5, CYP2D6. Put plainly: in vitro. Particulars: recombinant CYP2D6.
Method: as §2, §3, §4
Setting [14] is: recombinant CYP1B1, ERes 0.37 μM, read-out: IC50 CYP1B1.

T4 sequence (P33261 whole entry): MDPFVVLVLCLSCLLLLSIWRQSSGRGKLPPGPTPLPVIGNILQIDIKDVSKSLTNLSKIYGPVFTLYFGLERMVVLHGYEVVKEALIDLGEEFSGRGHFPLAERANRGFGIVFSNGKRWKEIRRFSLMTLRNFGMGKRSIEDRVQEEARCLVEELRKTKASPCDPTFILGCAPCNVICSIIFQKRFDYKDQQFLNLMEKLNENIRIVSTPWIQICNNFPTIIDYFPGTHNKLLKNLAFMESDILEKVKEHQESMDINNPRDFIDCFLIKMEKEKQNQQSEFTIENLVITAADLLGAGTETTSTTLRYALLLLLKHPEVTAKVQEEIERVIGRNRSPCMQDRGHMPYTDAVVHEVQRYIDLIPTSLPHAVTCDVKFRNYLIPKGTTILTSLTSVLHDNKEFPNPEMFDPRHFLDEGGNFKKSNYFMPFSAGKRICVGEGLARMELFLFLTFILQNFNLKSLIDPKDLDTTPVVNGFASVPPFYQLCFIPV
Method for CYP1A2: as §2, §3, §4
Method for CYP3A4: as §2, §3, §4
Method for MCF-7 cells: as §5

For `CC(=O)N1CCN(c2ccc(OCC3COC(Cn4ccnc4)(c4ccc(Cl)cc4Cl)O3)cc2)CC1` (centres unmarked) [ketoconazole, reference compound], the half-maximal inhibitory concentration (IC50) was 40 ± 10 nM on CYP1A1 [1], 6300 ± 1700 nM on CYP1B1 [2] (setting [14]), less than 10000 nM at CYP1A1 [3] and less than 10000 nM on CYP1B1 [4].
As for `O=c1c(O)c(-c2ccccc2)oc2cc(O)cc(O)c12` [galangin], the “nature of inhibition of DMBA-induced CYP1A1” value with CYP1A1 [5] is “noncompetitive, dose-dependent”.
With `O=c1[nH]cc(F)c(=O)[nH]1` [Fluorouracil, fluorouracil, reference compound], the values for the IC50 in the series with CCD18 Co cells and in the series on HT29 cells were 55500 ± 3710 nM and 23500 ± 1120 nM, respectively.
For the molecule `C/C(=C\C(=O)c1cc(O)c(Br)cc1O)CCCC(C)(C)O` [PBQ2, 7-hydroxycymopolone], the IC50 in the series with CCD18 Co cells amounted to 55600 ± 3280 nM; in the series with HT29 cells it was 19800 ± 460 nM; at CYP1A1 [1], 930 ± 260 nM; on CYP1A2 it was 10600 ± 6750 nM; at CYP1B1 [2] (setting [14]), 140 ± 40 nM; on CYP2C19 [6], 120 ± 60 nM. Also, the IC50 at CYP3A4 (recombinant CYP3A4, BFC 50 μM, read-out: IC50 CYP3A4) turned out to be 8310 ± 4670 nM; against CYP2D6 [7], 2750 ± 960 nM. Also, the “IC50 cell viability HepG” value with HepG2 cells is on record as “NI (no impact (<10% inhibition at 60 μM))”. For the same molecule, the “IC50 cell viability MCF-7” value in the series with MCF-7 cells is listed as “NI (no impact (<10% inhibition at 60 μM))”. For the same molecule, the “nature of inhibition of CYP1A1 activity” value at CYP1A1 [1] is recorded as “uncompetitive inhibition”. The results for the Ki at CYP1A1 [1] and on CYP1B1 [2] were 840 ± 70 nM and 4.7 nM, respectively. On CYP1B1 [2], the “nature of inhibition of CYP1B1 activity” value was “partial noncompetitive inhibition”.
Take `CCC1(c2ccccc2)C(=O)NC(=O)N(Cc2ccccc2)C1=O` (single isomer, unassigned; (-)) [(−)-N-3-Benzyl-phenobarbital, reference compound]: the values for the IC50 at CYP2C19 [6] and at CYP2C19 [8] were 300 ± 10 nM and 250 nM, respectively.
Regarding `CC(C)(O)CCCC1(C)CC(=O)c2cc(O)c(Br)cc2O1` (centres unmarked) [PBQ1, 7-Hydroxycymopochromanone], the viability at 24 h, 60 µM in series [9], in series [10], in series [11] and in series [12] was less than 10% each time. Also, in the series with CCD18 Co cells, the “IC50 cell viability CCD18 Co” value is listed as “NI (no impact (<10% inhibition at 60 μM))”. In addition, the “IC50 cell viability HT29” value with HT29 cells is “NI (no impact (<10% inhibition at 60 μM))”. In the series on HepG2 cells, the “IC50 cell viability HepG” value is “NI (no impact (<10% inhibition at 60 μM))”. Besides, in the series on MCF-7 cells, the “IC50 cell viability MCF-7” value was “NI (no impact (<10% inhibition at 60 μM))”. Besides, the “nature of inhibition of CYP1A1 activity” value at CYP1A1 [1] was “partial non competitive; also recorded: partial noncompetitive inhibition”. Also, the Ki is 3070 ± 690 nM at CYP1A1 [1]; 9160 ± 4680 nM on CYP1A2 (apparent Ki, CEC dealkylation); 260 ± 30 nM at CYP1B1 [2]. Besides, the “nature of inhibition of CYP1A2 activity” value on CYP1A2 (Eadie-Hofstee analysis, reversible) was “noncompetitive inhibition”. Also, the IC50 at CYP1A2 (human, probe 7-ethoxy-3-cyanocoumarin (CEC)) amounted to 9750 ± 36.5 nM; against CYP1B1 [2] (human) it was 1420 ± 140 nM; at CYP3A4 (human, recombinant enzyme), 5070 ± 3540 nM; on CYP2D6 [13], 1030 ± 400 nM. Also, the “nature of inhibition of CYP1B1 activity” value on CYP1B1 [2] is reported as “uncompetitive inhibition”.
